For 6 compounds, IC50 results are on record in patent publication US20130216552A1, “CRTH2 MODULATORS” (Ironwood Pharmaceuticals, Inc., priority 2010, published 2013).

As usually defined, the IC50 is the concentration that gives 50% inhibition. Lower therefore signals greater potency in that assay.

Assay [1] concerns the target T1, CRTH2 (Homo sapiens, UniProt Q9Y5Y4).
T1 construct: polymorphonuclear cells (0.5 ml; 10^6/ml cells) in PBS containing 0.9 mM CaCl2 and 0.5 mM MgCl2; endogenous in cells; host or cells: polymorphonuclear cells (eosinophils gated by flow cytometry)
T1 sequence (Q9Y5Y4 1-395): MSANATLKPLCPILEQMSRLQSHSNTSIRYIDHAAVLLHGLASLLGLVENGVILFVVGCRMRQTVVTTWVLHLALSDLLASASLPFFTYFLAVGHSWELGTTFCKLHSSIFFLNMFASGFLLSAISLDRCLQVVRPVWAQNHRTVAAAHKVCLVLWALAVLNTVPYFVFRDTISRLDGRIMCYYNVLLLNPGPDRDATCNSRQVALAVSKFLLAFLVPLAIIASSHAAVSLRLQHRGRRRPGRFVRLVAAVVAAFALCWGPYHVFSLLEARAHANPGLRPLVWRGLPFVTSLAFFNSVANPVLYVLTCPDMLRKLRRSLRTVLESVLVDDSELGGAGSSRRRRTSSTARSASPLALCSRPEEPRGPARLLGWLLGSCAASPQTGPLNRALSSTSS
Description: DPBS CD11b Antagonist Assay. It is filed as cell-based. The conditions noted are these: polymorphonuclear cells in PBS with CaCl2/MgCl2; CD11b expression in eosinophils; agonist 15R-Methyl-PGD2 (10 nM). Here is the method: DPBS CD11b Antagonist Assay
The potential CRTH2 antagonist activity of certain compounds was tested using a CD11b expression assay using essentially the method described by Monneret et al. (J Pharmacol Exp Ther 304:349-55, 2003). Briefly, polymorphonuclear cells (0.5 ml; 10^6/ml cells) in PBS containing 0.9 mM CaCl2 and 0.5 mM MgCl2) were preincubated with various concentrations of test compounds at room temperature for 10 minutes before they were challenged with the agonist 15R-Methyl-PGD2 (10 nM). The incubations were terminated by the addition of ice-cold FACSFlow (BD Biosciences; Cat#342003) and centrifugation (400 g for 5 minutes at 4° C.). The cells were then incubated for 30 minutes at 4° C. with a mixture of PE-labeled mouse anti-human VLA-4 (5 μl; BD Biosciences) and FITC-labeled mouse anti-human CD11b (10 μl; Beckman Coulter). The cells were then incubated with Optilyse C (0.25 ml; Beckman Coulter) for 15 minutes, centrifuged, and then fixed in PBS (0.4 ml; calcium and magnesium free) containing 1% formaldehyde. The distribution of fluorescence intensities among 60,000 cells was measured by flow cytometry. Eosinophils were gated out on the basis of their granularity (high side scatter) and labeling with VLA-4 (PE fluorescence). CD11b was then measured in the eosinophil region on the basis of fluorescence due to FITC. All data were corrected for the value obtained for the corresponding isotope control antibody.

Assay [2] has as its target T1, CRTH2. Description: Human Whole Blood CD11b Antagonist Assay. Particulars: CD11b expression in eosinophils, agonist 15R-Methyl-PGD2 (10 nM). In kind it is cell-based. Here is the method:
Human Whole Blood CD11b Antagonist Assay (Modified from Nicholson, et al. Pulmonary Pharmacology and Therapeutics: 20 (2007); 52-59)
The potential CRTH2 antagonist activity of certain compounds was tested in human whole blood using an assay that tests the ability of the compounds to block the CD11b expression in eosinophils by 15-R-methyl-PGD2. A CRTH2 antagonist should block CD11b expression by subsequently added 15-Methyl-PGD2. Human whole blood ([…]) was incubated at 37° C. for 10 minutes in the presence of various concentrations of test compounds before being challenged with the agonist 15R-Methyl-PGD2 (10 nM). Reactions were terminated by the addition of ice-cold PBS+0.5% BSA+2 mM EDTA (1 mL) and centrifugation (300×g for 5 minutes at 4° C.) Cells were then incubated at 4° C. for 10 min in the presence of human IgG. Cells were then incubated for 30-45 min with a mixture of PE-Cy5-labeled mouse anti-human CD16 (10 ul; BD Biosciences) and FITC-labeled mouse anti-human CD11b (10 μL; Beckman Coulter.) After rinsing (1 mL ice-cold PBS+0.5% BSA+2 mM EDTA), red blood cells were lysed by the addition of 1 mL ice-cold H2O to the cell pellet for 30 sec-1 min immediately followed by the addition of 3.5% NaCl (300 μL.) Cells were then rinsed (2×−1 ml ice cold PBS+0.5% BSA+2 m MEDTA) and fixed in PBS containing 1% formaldehyde. The distribution of fluorescence intensities was measured by flow cytometry. Eosinophils were gated out on the basis of their granularity (high side scatter) and absence of CD-16. CD11b was then measured on this eosinophil population on the basis of fluorescence due to FITC.

In the case of `Cc1c(Cc2ccccc2S(=O)(=O)N2CCCC2)c2ccsc2n1CC(=O)O` [Compound I-1, 2-(5-Methyl-4-(2-(pyrrolidin-1-ylsulfonyl)benzyl)-6H-thieno[2,3-b]pyrrol-6-yl)acetic acid], the IC50 is < 1 nM on CRTH2 [1] and 20 to 100 nM at CRTH2 [2].

The compound `Cc1c(Cc2ccccc2S(=O)(=O)N2CCCC2)c2scnc2n1CC(=O)O` [Compound I-2, 2-(5-Methyl-6-(2-(pyrrolidin-1-ylsulfonyl)benzyl)-4H-pyrrolo[2,3-d]thiazol-4-yl)acetic acid] yielded an IC50 at CRTH2 [1] of 100 to 500 nM.

In the case of `Cc1c(Cc2ccccc2S(=O)(=O)c2ccccc2)c2ccsc2n1CC(=O)O` [Compound I-3, 2-(5-Methyl-4-(2-(phenylsulfonyl)benzyl)-6H-thieno[2,3-b]pyrrol-6-yl)acetic acid], the 50% inhibitory concentration (IC50) was < 1 nM at CRTH2 [1] and 5 to 20 nM on CRTH2 [2].

Take `Cc1c(Cc2ccccc2S(=O)(=O)N2CCCC2)c2sccc2n1CC(=O)O` [Compound I-4, 2-(5-Methyl-6-(2-(pyrrolidin-1-ylsulfonyl)benzyl)-4H-thieno[3,2-b]pyrrol-4-yl)acetic acid]: the IC50 on CRTH2 [1] was in the range of 1 to 5 nM; at CRTH2 [2], 20 to 100 nM.

In the case of `Cc1c(Cc2ccccc2S(=O)(=O)N2CCOCC2)c2scnc2n1CC(=O)O` [Compound I-5, 2-(5-Methyl-6-(2-(morpholinosulfonyl)benzyl)-4H-pyrrolo[2,3-d]thiazol-4-yl)acetic acid], the IC50 at CRTH2 [1] and on CRTH2 [2] was 3000 to 5000 nM throughout.

As to `Cc1c(Cc2ccccc2S(=O)(=O)N2CCOCC2)c2ccsc2n1CC(=O)O` [Compound I-6, 2-(5-Methyl-4-(2-(morpholinosulfonyl)benzyl)-6H-thieno[2,3-b]pyrrol-6-yl)acetic acid], the concentration for half-maximal inhibition (IC50) was < 1 nM on CRTH2 [1] and 5 to 20 nM on CRTH2 [2].
